From ChEMBL document CHEMBL4020776, “Stabilizing HDAC11 with SAHA to assay slow-binding benzamide inhibitors” (Bioorg Med Chem Lett, 2017)

How the values were obtained:
[1] = biological target: T1, Histone deacetylase 11 (Homo sapiens) (UniProt Q96DB2); assay: Inhibition of recombinant C-terminal His-tagged HDAC11 (unknown origin) expressed in baculovirus infected Sf9 cells at 2 uM using Ac-Arg-Gly-Lys(Ac)-AMC as substrate pretreated for 3 hrs followed by substrate addition after 30 mins in presence of 0.2 uM SAHA by fluorometric method relative to control
T1 sequence (whole entry): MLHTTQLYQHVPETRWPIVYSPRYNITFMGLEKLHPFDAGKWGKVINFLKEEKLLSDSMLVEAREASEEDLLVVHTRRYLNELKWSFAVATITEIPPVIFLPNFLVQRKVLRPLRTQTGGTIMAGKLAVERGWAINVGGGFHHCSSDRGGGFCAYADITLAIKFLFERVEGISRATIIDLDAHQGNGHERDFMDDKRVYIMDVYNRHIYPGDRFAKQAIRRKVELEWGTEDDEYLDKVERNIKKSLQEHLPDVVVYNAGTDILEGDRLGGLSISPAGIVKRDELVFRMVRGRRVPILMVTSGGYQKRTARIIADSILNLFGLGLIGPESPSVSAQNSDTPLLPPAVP

[2] = biological target: T1, Histone deacetylase 11 (Homo sapiens); assay: Inhibition of recombinant C-terminal His-tagged HDAC11 (unknown origin) expressed in baculovirus infected Sf9 cells at 2 uM using Ac-Arg-Gly-Lys(Ac)-AMC as substrate pretreated for 3 hrs followed by substrate addition after 30 mins by fluorometric method relative to control
Histone deacetylase 11 [3] = biological target: T2, Histone deacetylase 11 (Homo sapiens, UniProt Q96DB2); assay: Inhibition of recombinant C-terminal His-tagged HDAC11 (unknown origin) expressed in baculovirus infected Sf9 cells using Ac-Arg-Gly-Lys(Ac)-AMC as substrate pretreated for 3 hrs followed by substrate addition after 30 mins by fluorometric method
T2 sequence (Q96DB2 whole entry): T1 sequence (whole entry)

Histone deacetylase 11 [4] = biological target: T2, Histone deacetylase 11; assay: Inhibition of recombinant C-terminal His-tagged HDAC11 (unknown origin) expressed in baculovirus infected Sf9 cells using Ac-Arg-Gly-Lys(Ac)-AMC as substrate pretreated for 3 hrs followed by substrate addition after 30 mins in presence of 0.2 uM SAHA by fluorometric method
[5] = biological target: T1, Histone deacetylase 11 (Homo sapiens); assay: Inhibition of recombinant C-terminal His-tagged HDAC11 (unknown origin) expressed in baculovirus infected Sf9 cells at 5 uM using Ac-Arg-Gly-Lys(Ac)-AMC as substrate pretreated followed by substrate addition after 30 mins by fluorometric method; conditions: TDE = time-dependent effect

## Nc1ccccc1NC(=O)/C=C/c1cn([C@@H]2C[C@@H](CO)N(CCc3ccccc3)C2)nn1
[1]
  inhibition: < 10%

## Nc1ccccc1NC(=O)/C=C/c1cn([C@H]2C[C@H](C(=O)O)N(CCc3ccccc3)C2)nn1
[2]
  inhibition: < 0%
[1]
  inhibition: < 10%

## Nc1ccccc1NC(=O)/C=C/c1cn([C@@H]2C[C@@H](C(=O)O)N(CCc3ccccc3)C2)nn1
[2]
  inhibition: < 10%
[1]
  inhibition: < 10%

## Nc1ccccc1NC(=O)/C=C/c1cn([C@@H]2C[C@H](C(=O)O)N(CCCc3ccccc3)C2)nn1
[2]
  inhibition: < 10%
[1]
  inhibition: < 10%

## Nc1ccccc1NC(=O)/C=C/c1cn([C@H]2C[C@@H](C(=O)O)N(CCCc3ccccc3)C2)nn1
[2]
  inhibition: < 0%
[1]
  inhibition: < 10%

## Nc1ccccc1NC(=O)/C=C/c1cn([C@H]2C[C@@H](CO)N(Cc3ccccc3)C2)nn1
Histone deacetylase 11 [3]
  IC50: 2140 nM
[2]
  inhibition: 31%
[1]
  inhibition: 36%

## Nc1ccccc1NC(=O)/C=C/c1cn([C@H]2C[C@H](CO)N(Cc3ccccc3)C2)nn1
[2]
  inhibition: < 0%
[1]
  inhibition: 14%

## Nc1ccccc1NC(=O)/C=C/c1cn([C@H]2C[C@@H](C(=O)O)N(Cc3ccccc3)C2)nn1
[2]
  inhibition: < 0%
[1]
  inhibition: < 10%

## Nc1ccccc1NC(=O)/C=C/c1cn([C@H]2C[C@H](CO)N(CCc3ccccc3)C2)nn1
[2]
  inhibition: < 10%
[1]
  inhibition: < 10%

## Nc1ccccc1NC(=O)c1ccc(CNC(=O)OCc2cccnc2)cc1 [ENTINOSTAT]
Histone deacetylase 11 [3]
  IC50: 900 nM
[2]
  inhibition: 67%
[1]
  inhibition: 59%
Histone deacetylase 11 [4]
  IC50: 1300 nM
[5]
  inhibition: Tde

## Nc1ccccc1NC(=O)/C=C/c1cn([C@H]2C[C@H](C(=O)O)N(Cc3ccccc3)C2)nn1
[2]
  inhibition: 12%
[1]
  inhibition: < 10%

## Nc1ccccc1NC(=O)/C=C/c1cn([C@H]2C[C@H](C(=O)O)N(CCCc3ccccc3)C2)nn1
[2]
  inhibition: < 0%
[1]
  inhibition: < 10%

## Nc1ccccc1NC(=O)/C=C/c1cn([C@H]2C[C@@H](C(=O)O)N(CCc3ccccc3)C2)nn1
[1]
  inhibition: < 10%

## Nc1ccccc1NC(=O)/C=C/c1cn([C@@H]2C[C@H](CO)N(CCc3ccccc3)C2)nn1
[2]
  inhibition: < 0%
[1]
  inhibition: < 10%

## Nc1ccccc1NC(=O)/C=C/c1cn([C@@H]2C[C@@H](C(=O)O)N(CCCc3ccccc3)C2)nn1
[2]
  inhibition: < 10%
[1]
  inhibition: < 10%

## Nc1ccccc1NC(=O)/C=C/c1cn([C@@H]2C[C@H](CO)N(Cc3ccccc3)C2)nn1
[2]
  inhibition: < 10%
[1]
  inhibition: 14%

## Nc1ccccc1NC(=O)/C=C/c1cn([C@@H]2C[C@@H](CO)N(CCCc3ccccc3)C2)nn1
[2]
  inhibition: < 10%
[1]
  inhibition: 13%

## Nc1ccccc1NC(=O)/C=C/c1cn([C@@H]2C[C@@H](CO)N(Cc3ccccc3)C2)nn1
[2]
  inhibition: < 10%
[1]
  inhibition: 22%

## Nc1ccccc1NC(=O)/C=C/c1cn([C@H]2C[C@H](CO)N(CCCc3ccccc3)C2)nn1
[2]
  inhibition: < 10%
[1]
  inhibition: 16%

## Nc1ccccc1NC(=O)/C=C/c1cn([C@@H]2C[C@H](C(=O)O)N(Cc3ccccc3)C2)nn1
[1]
  inhibition: < 10%

## Nc1ccccc1NC(=O)/C=C/c1cn([C@@H]2C[C@H](CO)N(CCCc3ccccc3)C2)nn1
[2]
  inhibition: < 0%
[1]
  inhibition: 12%

## Nc1ccccc1NC(=O)/C=C/c1cn([C@@H]2C[C@H](C(=O)O)N(CCc3ccccc3)C2)nn1
[2]
  inhibition: < 0%
[1]
  inhibition: < 10%

## Nc1ccccc1NC(=O)/C=C/c1cn([C@H]2C[C@@H](CO)N(CCCc3ccccc3)C2)nn1
[2]
  inhibition: < 0%
[1]
  inhibition: 19%

## Nc1ccccc1NC(=O)/C=C/c1cn([C@@H]2C[C@@H](C(=O)O)N(Cc3ccccc3)C2)nn1
[2]
  inhibition: < 0%
[1]
  inhibition: < 10%

## Nc1ccccc1NC(=O)/C=C/c1cn([C@H]2C[C@@H](CO)N(CCc3ccccc3)C2)nn1
[2]
  inhibition: < 10%
[1]
  inhibition: 20%
